From publication PMC7567103 (Nature Communications, 2020)
pEC50: −log10 of the molar value.

Key:
Assay type in all cases: cell-based
GHRHR C195A = target: T1, GHRHR C195A (Homo sapiens, UniProt Q02643, C195A); experiment: cAMP accumulation, C195A; conditions: mean ± SEM, n ≥ 3
T1 construct: GHRHR(23-423)-; HA signal peptide (replaces native signal M1-G22) (N); expressed in transfected cells; host or cells: HEK 293T, pcDNA3.1, transient
From the text: (§1) Fig. 2 Molecular recognition of GHRH by GHRHR and comparison of that with LA-PTH–PTH1R and GLP-1–GLP-1R. a Detailed interaction between GHRH and the TMD pocket of GHRHR with hydrogen bonds shown as dotted lines. b, c Pairwise comparison of GHRH bound to GHRHR with GLP-1 and LA-PTH in complex with their corresponding receptors, showing the relative positions of peptide ligands. Lime green, GHRHR; blue, GHRH; red, PTH1R and LA-PTH; purple, GLP-1R and GLP-1. d–f The effects of mutation in the ligand-binding pocket on cAMP accumulation. cAMP levels were measured in wild-type (WT) receptor and alanine mutants in ECL1, 2, and 3 (d), TM1, 2, and 3 (e), and TM5, 6, and 7 (f). cAMP signals were normalized to the maximum response of WT and concentration–response curves were analyzed using a three-parameter logistic equation. Data shown are means ± S.E.M. of at least three independent experiments (n = 3–5), conducted in triplicate. Source data are provided as a Source data file.
(§2) GHRH-stimulated cAMP accumulation was measured by a LANCE Ultra cAMP kit (PerkinElmer). […] After 1 h RT incubation, TR-FRET signals (excitation: 320 nm, emission: 615 and 665 nm) were measured by an EnVision (PerkinElmer).

GHRHR E361A = target: T2, GHRHR E361A (Homo sapiens, UniProt Q02643, E361A); experiment: cAMP accumulation, E361A; conditions: mean ± SEM, n ≥ 3
T2 construct: GHRHR(23-423)-; HA signal peptide (replaces native signal M1-G22) (N); expressed in transfected cells; host or cells: HEK 293 T
T2 sequence (Q02643 23-423 E361A): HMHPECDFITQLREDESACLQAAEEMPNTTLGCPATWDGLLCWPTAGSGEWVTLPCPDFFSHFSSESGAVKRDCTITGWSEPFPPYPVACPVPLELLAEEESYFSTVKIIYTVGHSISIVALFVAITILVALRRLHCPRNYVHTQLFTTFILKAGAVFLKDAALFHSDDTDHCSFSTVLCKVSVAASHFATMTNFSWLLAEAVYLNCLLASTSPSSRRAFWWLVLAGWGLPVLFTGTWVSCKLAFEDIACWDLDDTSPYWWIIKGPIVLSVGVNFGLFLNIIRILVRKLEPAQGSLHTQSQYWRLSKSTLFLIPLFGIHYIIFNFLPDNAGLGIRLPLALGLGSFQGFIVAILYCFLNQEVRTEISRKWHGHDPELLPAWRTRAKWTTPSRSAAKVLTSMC
From the text: as §1, §2

GHRHR I289A = target: T3, GHRHR I289A (Homo sapiens, UniProt Q02643, I289A); experiment: cAMP accumulation, I289A; conditions: mean ± SEM, n ≥ 3
T3 construct: GHRHR(23-423)-; HA signal peptide (replaces native signal M1-G22) (N); expressed in transfected cells; host or cells: HEK 293T, pcDNA3.1, transient
T3 sequence (Q02643 23-423 I289A): as the sequence (Q02643 23-423 E361A) above, with I267A, A339E counted along it
From the text: as §1, §2

GHRHR D276A = target: T4, GHRHR D276A (Homo sapiens, UniProt Q02643, D276A); experiment: cAMP accumulation, D276A; conditions: mean ± SEM, n ≥ 3
T4 construct: GHRHR(23-423)-; HA signal peptide (replaces native signal M1-G22) (N); expressed in transfected cells; host or cells: HEK 293T, pcDNA3.1, transient
T4 sequence (Q02643 23-423 D276A): as the sequence (Q02643 23-423 E361A) above, with D254A, A339E counted along it
From the text: as §1, §2

GHRHR L119A = target: T5, GHRHR L119A (Homo sapiens, UniProt Q02643, L119A); experiment: cAMP accumulation, L119A; conditions: mean ± SEM, n ≥ 3
T5 construct: GHRHR(23-423)-; HA signal peptide (replaces native signal M1-G22) (N); expressed in transfected cells; host or cells: HEK 293T, pcDNA3.1, transient
T5 sequence (Q02643 23-423 L119A): as the sequence (Q02643 23-423 E361A) above, with L97A, A339E counted along it
From the text: as §1, §2

GHRHR E122A = target: T6, GHRHR E122A (Homo sapiens, UniProt Q02643, E122A); experiment: cAMP accumulation, E122A; conditions: mean ± SEM, n ≥ 3
T6 construct: GHRHR(23-423)-; HA signal peptide (replaces native signal M1-G22) (N); expressed in transfected cells; host or cells: HEK 293T, pcDNA3.1, transient
T6 sequence (Q02643 23-423 E122A): as the sequence (Q02643 23-423 E361A) above, with E100A, A339E counted along it
From the text: as §1, §2

[1] = target: T7, GHRHR(23-405)-15AA-LgBiT-2MBP (Homo sapiens, UniProt Q02643); experiment: cAMP accumulation, construct GHRHR(23-405)-15AA-LgBiT-2MBP (Supplementary Fig. 2b); conditions: HEK 293T; mean ± SEM, n = 8-10
T7 construct: 24 h after transfection with GHRHR(23-423), GHRHR(23-405), GHRHR(23-405)-LgBiT-2MBP, or HA-Flag-GHRHR (WT and mutants); HA signal peptide (replaces native signal M1-G22) (N); expressed in transfected cells; host or cells: HEK 293 T
T7 sequence (Q02643 23-405): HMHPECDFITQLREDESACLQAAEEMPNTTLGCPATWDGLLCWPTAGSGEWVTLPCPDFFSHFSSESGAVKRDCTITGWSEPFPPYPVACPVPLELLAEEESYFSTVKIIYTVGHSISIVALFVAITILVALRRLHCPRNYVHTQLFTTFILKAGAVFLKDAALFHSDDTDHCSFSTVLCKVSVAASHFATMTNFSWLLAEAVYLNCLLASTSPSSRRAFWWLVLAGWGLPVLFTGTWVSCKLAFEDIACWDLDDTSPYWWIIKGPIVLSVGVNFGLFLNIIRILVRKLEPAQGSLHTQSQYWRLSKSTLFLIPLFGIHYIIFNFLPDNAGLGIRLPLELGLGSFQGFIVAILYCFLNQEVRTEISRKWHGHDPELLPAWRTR
Procedure: GHRH-stimulated cAMP accumulation was measured by a LANCE Ultra cAMP kit (PerkinElmer). Briefly, 24 h after transfection with GHRHR(23-423), GHRHR(23-405), GHRHR(23-405)-LgBiT-2MBP, or HA-Flag-GHRHR (WT and mutants), HEK 293 T cells (3000/well in 384-well white plates, PerkinElmer) were digested by 0.2% (w/v) EDTA and 5 μL stimulation buffer (HBSS supplemented with 5 mM HEPES, 0.5 mM IBMX, and 0.1% (w/v) BSA, pH 7.4). Different concentrations (5 μL) of GHRH were then added and the stimulation lasted for 30 min at RT. The reaction was stopped by adding 5 μL Eu-cAMP tracer and 5 μL ULight-anti-cAMP. After 1 h RT incubation, TR-FRET signals (excitation: 320 nm, emission: 615 and 665 nm) were measured by an EnVision (PerkinElmer).
223 Supplementary Ta b l e 1. Effects of GHRH-mediated cAMP accumulation.
Receptor cAMP Cell surface expression Binding
pEC50 Emax (% WT) (% WT) pIC50 […]
225 to determine pEC50 and Emax values. pEC50 is the negative logarithm of the molar
226 concentration of agonist that induced half the maximal response. Cell surface […]
228 Flag antibody (Sigma-Aldrich, 1:300); Donkey anti-Mouse Alexa Fluor 488-
229 conjugated secondary antibody, (ThermoFisher Scientific, 1:1000)] on the […]
231 Binding data were analyzed using a three-parameter logistic equation to […]
234 determine statistical difference. *P<0.01; ND, not determined.

GHRHR F187A = target: T8, GHRHR F187A (Homo sapiens, UniProt Q02643, F187A); experiment: cAMP accumulation, F187A; conditions: mean ± SEM, n ≥ 3
T8 construct: GHRHR(23-423)-; HA signal peptide (replaces native signal M1-G22) (N); expressed in transfected cells; host or cells: HEK 293T, pcDNA3.1, transient
T8 sequence (Q02643 23-423 F187A): as the sequence (Q02643 23-423 E361A) above, with F165A, A339E counted along it
From the text: as §1, §2

GHRHR D193A = target: T9, GHRHR D193A (Homo sapiens, UniProt Q02643, D193A); experiment: cAMP accumulation, D193A; conditions: mean ± SEM, n ≥ 3
T9 construct: GHRHR(23-423)-; HA signal peptide (replaces native signal M1-G22) (N); expressed in transfected cells; host or cells: HEK 293T, pcDNA3.1, transient
T9 sequence (Q02643 23-423 D193A): as the sequence (Q02643 23-423 E361A) above, with D171A, A339E counted along it
From the text: as §1, §2

GHRHR K182A = target: T10, GHRHR K182A (Homo sapiens, UniProt Q02643, K182A); experiment: cAMP accumulation, K182A; conditions: mean ± SEM, n ≥ 3
T10 construct: GHRHR(23-423)-; HA signal peptide (replaces native signal M1-G22) (N); expressed in transfected cells; host or cells: HEK 293T, pcDNA3.1, transient
T10 sequence (Q02643 23-423 K182A): as the sequence (Q02643 23-423 E361A) above, with K160A, A339E counted along it
From the text: as §1, §2

GHRHR H210A = target: T11, GHRHR H210A (Homo sapiens, UniProt Q02643, H210A); experiment: cAMP accumulation, H210A; conditions: mean ± SEM, n ≥ 3
T11 construct: GHRHR(23-423)-; HA signal peptide (replaces native signal M1-G22) (N); expressed in transfected cells; host or cells: HEK 293T, pcDNA3.1, transient
T11 sequence (Q02643 23-423 H210A): as the sequence (Q02643 23-423 E361A) above, with H188A, A339E counted along it
From the text: as §1, §2

GHRHR D350A = target: T12, GHRHR D350A (Homo sapiens, UniProt Q02643, D350A); experiment: cAMP accumulation, D350A; conditions: mean ± SEM, n ≥ 3
T12 construct: GHRHR(23-423)-; HA signal peptide (replaces native signal M1-G22) (N); expressed in transfected cells; host or cells: HEK 293 T
T12 sequence (Q02643 23-423 D350A): as the sequence (Q02643 23-423 E361A) above, with D328A, A339E counted along it
From the text: as §1, §2

T1 sequence (Q02643 23-423 C195A): as the sequence (Q02643 23-423 E361A) above, with C173A, A339E counted along it

Compound: CC[C@H](C)[C@H](NC(=O)[C@H](C)NC(=O)[C@H](CC(=O)O)NC(=O)[C@H](C)NC(=O)[C@@H](N)Cc1ccc(O)cc1)C(=O)N[C@@H](Cc1ccccc1)C(=O)N[C@H](C(=O)N[C@@H](CC(N)=O)C(=O)N[C@@H](CO)C(=O)N[C@@H](Cc1ccc(O)cc1)C(=O)N[C@@H](CCCNC(=N)N)C(=O)N[C@@H](CCCCN)C(=O)N[C@H](C(=O)N[C@@H](CC(C)C)C(=O)NCC(=O)N[C@@H](CCC(N)=O)C(=O)N[C@@H](CC(C)C)C(=O)N[C@@H](CO)C(=O)N[C@@H](C)C(=O)N[C@@H](CCCNC(=N)N)C(=O)N[C@@H](CCCCN)C(=O)N[C@@H](CC(C)C)C(=O)N[C@@H](CC(C)C)C(=O)N[C@@H](CCC(N)=O)C(=O)N[C@@H](CC(=O)O)C(=O)N[C@H](C(=O)N[C@@H](CCSC)C(=O)N[C@@H](CO)C(=O)N[C@@H](CCCNC(=N)N)C(=O)N[C@@H](CCC(N)=O)C(=O)N[C@@H](CCC(N)=O)C(=O)NCC(=O)N[C@@H](CCC(=O)O)C(=O)N[C@@H](CO)C(=O)N[C@@H](CC(N)=O)C(=O)N[C@@H](CCC(N)=O)C(=O)N[C@@H](CCC(=O)O)C(=O)N[C@@H](CCCNC(=N)N)C(=O)NCC(=O)N[C@@H](C)C(=O)N[C@@H](CCCNC(=N)N)C(=O)N[C@@H](C)C(=O)N[C@@H](CCCNC(=N)N)C(=O)N[C@@H](CC(C)C)C(N)=O)[C@@H](C)CC)C(C)C)[C@@H](C)O [GHRH, Growth hormone-releasing hormone]
- pEC50 (GHRHR C195A): 7.67
- Emax (GHRHR C195A): 95.22±1.05 % WT
- pEC50 (GHRHR E361A): 8.98
- Emax (GHRHR E361A): 18.75±4.38 % WT
- pEC50 (GHRHR I289A): 8.01
- Emax (GHRHR I289A): 93.36±2.36 % WT
- pEC50 (GHRHR D276A): 9.48
- Emax (GHRHR D276A): 102.04±0.51 % WT
- pEC50 (GHRHR L119A): 9.14
- Emax (GHRHR L119A): 98.67±1.48 % WT
- pEC50 (GHRHR E122A): 9.96
- Emax (GHRHR E122A): 98.38±3.26 % WT
- pEC50 [1]: 8.54
- Emax [1]: 78.82±10.52 % WT
- pEC50 (GHRHR F187A): 8.94
- Emax (GHRHR F187A): 101.68±1.52 % WT
- pEC50 (GHRHR D193A): 9.94
- Emax (GHRHR D193A): 101.42±1.02 % WT
- pEC50 (GHRHR K182A): 7.40
- Emax (GHRHR K182A): 100.02±1.40 % WT
- pEC50 (GHRHR H210A): 9.00
- Emax (GHRHR H210A): 99.66±1.10 % WT
- pEC50 (GHRHR D350A): 6.83
- Emax (GHRHR D350A): 47.38±8.48 % WT
